Reference: patent publication US7915276B2, “Berberrubine derivatives having antifungal activities” (priority 2006, dated 2011)

What was measured:
[1] = molecular target: T1, chitin synthase 2 of Saccharomyces cerevisiae ECY38-38A(pAS6) (Saccharomyces cerevisiae, UniProt P14180); assay: In vitro enzyme assay for chitin synthase 2 of Saccharomyces cerevisiae (enzyme 2); assay type: biochemical; settings: relative to polyoxin D (50% inhibitory activity = value 5)
T1 construct: made in house; host or cells: Saccharomyces cerevisiae ECY38-38A (chs1-23 chs2::LEU2 cal1/csd2) carrying plasmid pAS6, grown in galactose medium; 130,000 x g membrane pellet
T1 sequence (P14180 whole entry): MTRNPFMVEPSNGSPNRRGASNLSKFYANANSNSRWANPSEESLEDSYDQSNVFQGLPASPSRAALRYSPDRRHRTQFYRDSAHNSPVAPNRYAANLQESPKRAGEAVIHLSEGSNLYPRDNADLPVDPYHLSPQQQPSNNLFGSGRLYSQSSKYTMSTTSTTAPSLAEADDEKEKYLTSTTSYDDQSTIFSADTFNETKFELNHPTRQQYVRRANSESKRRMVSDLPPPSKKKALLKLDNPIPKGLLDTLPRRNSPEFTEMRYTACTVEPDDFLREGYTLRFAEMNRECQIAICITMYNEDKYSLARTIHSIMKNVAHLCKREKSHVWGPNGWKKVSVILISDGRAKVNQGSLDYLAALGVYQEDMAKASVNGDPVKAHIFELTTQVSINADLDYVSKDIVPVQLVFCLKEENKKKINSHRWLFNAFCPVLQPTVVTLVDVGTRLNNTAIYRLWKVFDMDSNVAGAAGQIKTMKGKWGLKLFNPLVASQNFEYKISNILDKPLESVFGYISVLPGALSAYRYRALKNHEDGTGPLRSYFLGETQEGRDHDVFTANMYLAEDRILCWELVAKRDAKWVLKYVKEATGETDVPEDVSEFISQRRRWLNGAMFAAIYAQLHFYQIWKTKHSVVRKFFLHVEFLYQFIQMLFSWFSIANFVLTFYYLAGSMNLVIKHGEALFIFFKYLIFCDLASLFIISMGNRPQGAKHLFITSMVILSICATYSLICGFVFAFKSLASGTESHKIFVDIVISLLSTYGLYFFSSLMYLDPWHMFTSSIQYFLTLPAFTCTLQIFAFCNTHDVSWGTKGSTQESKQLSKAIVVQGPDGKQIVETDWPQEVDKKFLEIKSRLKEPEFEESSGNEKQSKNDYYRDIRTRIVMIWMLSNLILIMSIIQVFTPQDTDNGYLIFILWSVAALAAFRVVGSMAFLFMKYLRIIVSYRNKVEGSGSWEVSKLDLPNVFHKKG
Method: Crude enzyme was prepared using the recombinant Saccharomyces cerevisiae ECY38-38A(pAS6) (MATa chs1-23 chs2::LEU2 cal 1/csd 2 ura 3-52 trp 1-1 leu 2-2 pAS6) strain, which can produce the chitin synthase 2 only. The strain was inoculated with the YPG culture medium (1% yeast extract, 2% peptone, 2% galactose) and cultured at 30° C. overnight. Then, it was inoculated with a fresh YPG culture medium and cultured for 15-17 hours until the Absorbance at 550 nm reaches 1.0. The cells were collected and suspended in 50 mM Tris-HCl (pH 7.5) buffer containing 5 mM magnesium acetate. After centrifugation at 8,000×g for 10 minutes, the pellets were suspended in the same Tris-HCl buffer solution. The suspension was divided into aliquots in 50 mL conical test tubes. After adding the glass beads, the cells were disrupted by vigorously vortexing with an interval of 30 seconds. The cell residues were removed by centrifuging at 3,000×g for 5 minutes. The supernatant was ultra-centrifuged at 130,000×g for 1 hour. The resultant pellets were collected and suspended in 50 mM Tris-HCl (pH 7.5) containing 33% glycerol, to a final volume of 1.6 mg/g (wet weight) of yeast used. The suspension was divided into aliquots and kept at −70° C. until it is used.
(§1) The inhibitory activities against the chitin synthase 1 of Candida albicans chs2 Δ chs 3 Δ (abbreviated as ‘enzyme 1’) and the chitin synthase 2 of Saccharomyces cerevisiae ECY38-38A(pAS6)(abbreviated as ‘enzyme 2’) was examined for compound Nos. 1 to 70 compound and polyoxin D, a positive control compound.
(§2) The inhibitory activity against the chitin synthase 1 prepared from Candida albicans and the chitin synthase 2 prepared from Saccharomyces cerevisiae were examined as follows. A reaction mixture containing 32 mM Tris-HCl (pH 7.5), 2 mM cobalt acetate, 1.1 mM UDP-[U-^14C]-N-acetyl-d-glucosamine (GlcNAc) (400,000 cpm/μmol), 2 μL of trypsin (0.75 mg/mL), 20 μL of each crude enzyme and 14 μL of each test sample was kept at 30° C. for 15 minutes to activate the enzyme. Then, 2 μL of trypsin inhibitor (1.5 mg/mL) was added and the mixture was kept in an ice bath for 10 minutes to deactivate trypsin. 2 μL of 0.8 M N-acetyl-d-glucosamine was added to a total volume of 50 μL and reaction was performed at 30° C. for 90 minutes. The reaction was stopped using 1 mL of 10% TCA solution and the reaction solution was filtered with a GF/C filter and dried at room temperature. After adding 3 mL of a scintillation cocktail solution, the amount of isotopes was measured using a liquid scintillation counter. Percentage inhibition against each enzyme was calculated by the following Equation 1.
(§3) The control group was not added with a test sample in the reaction mixture and that of the untreated group contained neither the test sample nor the crude enzyme.
(§4) A 50% inhibitory activity of polyoxin D against the enzyme was given the value 5. A compound having the same inhibitory activity as that of polyoxin D at the same concentration was given the value 5. Compounds having the inhibitory activity at 2-fold, 4-fold, 8-fold and 16-fold higher concentrations than that of polyoxin D were given the values of 4, 3, 2 and 1, respectively. On the other hand, compounds having the inhibitory activity at ½, ¼ and ⅛ lower concentrations than that of polyoxin D were given the values of 6, 7 and 8, respectively.

[2] = molecular target: T2, chitin synthase 1 of Candida albicans chs2 Δ chs 3 Δ (Candida albicans, UniProt P23316); assay: In vitro enzyme assay for chitin synthase 1 of Candida albicans (enzyme 1); assay type: biochemical; settings: relative to polyoxin D (50% inhibitory activity = value 5)
T2 construct: Crude enzyme was prepared using the Candida albicans chs2 Δ chs 3 Δ mutant; endogenous in cells; host or cells: Candida albicans chs2Δ/chs2Δ chs3Δ/chs3Δ mutant; 130,000 x g membrane pellet
T2 sequence (P23316 whole entry, stated change not applied): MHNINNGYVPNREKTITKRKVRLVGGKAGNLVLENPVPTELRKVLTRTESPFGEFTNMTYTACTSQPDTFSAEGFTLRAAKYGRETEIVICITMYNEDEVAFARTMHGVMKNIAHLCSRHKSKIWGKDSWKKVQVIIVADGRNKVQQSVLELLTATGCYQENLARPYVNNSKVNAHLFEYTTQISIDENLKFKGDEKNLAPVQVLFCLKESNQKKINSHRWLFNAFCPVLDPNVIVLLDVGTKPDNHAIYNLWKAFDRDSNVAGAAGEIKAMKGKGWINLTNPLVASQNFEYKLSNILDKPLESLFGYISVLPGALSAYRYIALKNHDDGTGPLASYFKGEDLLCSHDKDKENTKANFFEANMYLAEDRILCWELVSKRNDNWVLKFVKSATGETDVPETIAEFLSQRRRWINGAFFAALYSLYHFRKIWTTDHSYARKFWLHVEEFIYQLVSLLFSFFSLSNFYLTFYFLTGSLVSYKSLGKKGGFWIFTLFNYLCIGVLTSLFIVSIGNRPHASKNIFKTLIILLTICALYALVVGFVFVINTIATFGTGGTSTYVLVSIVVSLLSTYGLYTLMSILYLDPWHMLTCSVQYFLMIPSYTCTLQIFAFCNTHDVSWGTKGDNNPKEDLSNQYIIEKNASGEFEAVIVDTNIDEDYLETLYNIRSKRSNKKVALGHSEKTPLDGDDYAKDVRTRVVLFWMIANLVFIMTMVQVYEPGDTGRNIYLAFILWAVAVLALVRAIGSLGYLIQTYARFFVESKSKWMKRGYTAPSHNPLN
Method: Crude enzyme was prepared using the Candida albicans chs2 Δ chs 3 Δ mutant (chs2 Δ::hisG/chs2 Δ::hisG chs3 Δ::hisG/chs3 Δ::hisG) strain, which can only produce the chitin synthase 1. The strain was inoculated with the SDA (Sabouraud dextrose agar) culture medium (4% dextrose, 1% peptone, pH 5.6) and cultured at 30° C. for 15-17 hours until the absorbance at 550nm reaches 0.7. The cells were collected and suspended in a 50 mM Tris-HCl (pH 7.5) buffer solution containing 5 mM magnesium acetate. After centrifugation at 8,000×g for 10 minutes, the pellets were suspended in the same Tris-HCl buffer solution. The suspension was divided into aliquots in 50 mL conical test tubes. After adding glass beads, the cells were disrupted by vigorously vortexing with an interval of 30 seconds. The cell residues were removed by centrifuging at 3,000×g for 5 minutes. The supernatant was ultra-centrifuged at 130,000×g for 1 hour. The resultant pellets were collected and suspended in 50 mM Tris-HCl (pH 7.5) containing 33% glycerol, to a final volume of 1.6 mg/g (wet weight) of yeast used. The suspension was divided into aliquots and kept at −70° C. until it is used.
as §1, §2, §3, §4

| Compound | Relative activity Enzyme 2 [1] | Relative activity Enzyme 1 [2] |
| --- | --- | --- |
| 13-(3,4,5-trimethoxybenzyl)-9-O-butylberberrubine iodide [Compound No. 30] | 5 (A compound having the same inhibitory activity as that of polyoxin D at the same concentration was given the value 5) | 2 (Compounds having the inhibitory activity at 2-fold, 4-fold, 8-fold and 16-fold higher concentrations than that of polyoxin D were given the values of 4, 3, 2 and 1, respectively) |
| 13-(4-Trifluoromethoxybenzyl)berberrubine [Compound No. 3] | 3 (Compounds having the inhibitory activity at 2-fold, 4-fold, 8-fold and 16-fold higher concentrations than that of polyoxin D were given the values of 4, 3, 2 and 1, respectively) | 1 (Compounds having the inhibitory activity at 2-fold, 4-fold, 8-fold and 16-fold higher concentrations than that of polyoxin D were given the values of 4, 3, 2 and 1, respectively) |
| 13-(4-Trifluoromethoxybenzyl)-9-O-hexylberberrubine chloride [Compound No. 66] | 5 (A compound having the same inhibitory activity as that of polyoxin D at the same concentration was given the value 5) | 2 (Compounds having the inhibitory activity at 2-fold, 4-fold, 8-fold and 16-fold higher concentrations than that of polyoxin D were given the values of 4, 3, 2 and 1, respectively) |
| COc1ccc2c(Cc3ccc(OC(F)(F)F)cc3)c3[n+](cc2c1OCc1ccc(C(C)(C)C)cc1)CCc1cc2c(cc1-3)OCO2.[Br-] [Compound No. 35, 13-(4-Trifluoromethoxybenzyl)-9-O-(4-tert-butylbenzyl)berberrubine bromide] | 5 (A compound having the same inhibitory activity as that of polyoxin D at the same concentration was given the value 5) | 2 (Compounds having the inhibitory activity at 2-fold, 4-fold, 8-fold and 16-fold higher concentrations than that of polyoxin D were given the values of 4, 3, 2 and 1, respectively) |
| 13-(4-Trifluoromethoxybenzyl)-9-O-butylberberrubine chloride [Compound No. 65] | 6 (compounds having the inhibitory activity at ½, ¼ and ⅛ lower concentrations than that of polyoxin D were given the values of 6, 7 and 8, respectively) | 3 (Compounds having the inhibitory activity at 2-fold, 4-fold, 8-fold and 16-fold higher concentrations than that of polyoxin D were given the values of 4, 3, 2 and 1, respectively) |
| 13-(3,4,5-Trimethoxybenzyl)-9-O-butylberberrubine chloride [Compound No. 62] | 5 (A compound having the same inhibitory activity as that of polyoxin D at the same concentration was given the value 5) | 2 (Compounds having the inhibitory activity at 2-fold, 4-fold, 8-fold and 16-fold higher concentrations than that of polyoxin D were given the values of 4, 3, 2 and 1, respectively) |
| COc1ccc2c(Cc3cc(F)c(F)c(F)c3)c3[n+](cc2c1OCc1ccc(C(C)(C)C)cc1)CCc1cc2c(cc1-3)OCO2.[Br-] [Compound No. 29, 13-(3,4,5-Trifluorobenzyl)-9-O-(4-tert-butylbenzyl)berberrubine bromide] | 5 (A compound having the same inhibitory activity as that of polyoxin D at the same concentration was given the value 5) | 2 (Compounds having the inhibitory activity at 2-fold, 4-fold, 8-fold and 16-fold higher concentrations than that of polyoxin D were given the values of 4, 3, 2 and 1, respectively) |
| 13-(4-Trifluoromethylbenzyl)-9-O-butylberberrubine chloride [Compound No. 68] | 6 (compounds having the inhibitory activity at ½, ¼ and ⅛ lower concentrations than that of polyoxin D were given the values of 6, 7 and 8, respectively) | 3 (Compounds having the inhibitory activity at 2-fold, 4-fold, 8-fold and 16-fold higher concentrations than that of polyoxin D were given the values of 4, 3, 2 and 1, respectively) |
| COc1cc(Cc2c3[n+](cc4c(OCc5ccc(C(C)(C)C)cc5)c(OC)ccc24)CCc2cc4c(cc2-3)OCO4)cc(OC)c1OC.[Cl-] [Compound No. 64, 13-(3,4,5-Trimethoxybenzyl)-9-O-(4-tert-butylbenzyl)berberrubine chloride] | 4 (Compounds having the inhibitory activity at 2-fold, 4-fold, 8-fold and 16-fold higher concentrations than that of polyoxin D were given the values of 4, 3, 2 and 1, respectively) | 2 (Compounds having the inhibitory activity at 2-fold, 4-fold, 8-fold and 16-fold higher concentrations than that of polyoxin D were given the values of 4, 3, 2 and 1, respectively) |
| 13-(4-Trifluoromethylbenzyl)berberrubine [Compound No. 4] | 3 (Compounds having the inhibitory activity at 2-fold, 4-fold, 8-fold and 16-fold higher concentrations than that of polyoxin D were given the values of 4, 3, 2 and 1, respectively) | 1 (Compounds having the inhibitory activity at 2-fold, 4-fold, 8-fold and 16-fold higher concentrations than that of polyoxin D were given the values of 4, 3, 2 and 1, respectively) |
| 13-(3,4,5-Trimethoxybenzyl)berberrubine [Compound No. 2] | 3 (Compounds having the inhibitory activity at 2-fold, 4-fold, 8-fold and 16-fold higher concentrations than that of polyoxin D were given the values of 4, 3, 2 and 1, respectively) | 1 (Compounds having the inhibitory activity at 2-fold, 4-fold, 8-fold and 16-fold higher concentrations than that of polyoxin D were given the values of 4, 3, 2 and 1, respectively) |
| COc1ccc2c(Cc3ccc(C(OC)(OC)OC)cc3)c3[n+](cc2c1OC)CCc1cc2c(cc1-3)OCO2.[Cl-] [Comparative compound 3, reference compound] | 1 (Compounds having the inhibitory activity at 2-fold, 4-fold, 8-fold and 16-fold higher concentrations than that of polyoxin D were given the values of 4, 3, 2 and 1, respectively) | <1 (Compounds having the inhibitory activity at 2-fold, 4-fold, 8-fold and 16-fold higher concentrations than that of polyoxin D were given the values of 4, 3, 2 and 1, respectively) |
| 13-(3,4,5-Trifluorobenzyl)berberrubine [Compound No. 1] | 3 (Compounds having the inhibitory activity at 2-fold, 4-fold, 8-fold and 16-fold higher concentrations than that of polyoxin D were given the values of 4, 3, 2 and 1, respectively) | 1 (Compounds having the inhibitory activity at 2-fold, 4-fold, 8-fold and 16-fold higher concentrations than that of polyoxin D were given the values of 4, 3, 2 and 1, respectively) |
| 13-(4-Trifluoromethoxybenzyl)-9-O-butylberberrubine iodide [Compound No. 33] | 6 (compounds having the inhibitory activity at ½, ¼ and ⅛ lower concentrations than that of polyoxin D were given the values of 6, 7 and 8, respectively) | 3 (Compounds having the inhibitory activity at 2-fold, 4-fold, 8-fold and 16-fold higher concentrations than that of polyoxin D were given the values of 4, 3, 2 and 1, respectively) |
